Test results taken from patent US6576671B1, “Aminotetralin derivatives for the therapy of cardiovascular diseases” (Chiese Farmaceutici S.p.A., priority 1999, dated 2003).

System: patients suffering from NYHA class II-III congestive heart failure
Assay: Add-on therapy study, 28 days, clinical condition and exercise capacity
Format: in vivo, human
Protocol: The effects of CHF 1030 as added therapy have been evaluated in patients suffering from NYHA class II-III congestive heart failure due to mild hypertension, or coronary disease, or chronic cardiomyopathy who were on diuretics or diuretics and an angiotensin-converting enzyme inhibitor.
Recruited patients were randomly assigned to added double-blind treatment with placebo or with three different doses of the study drug (5 mg, 10 mg, 15 mg).
The study therapy was started by patients on day 1 and proceeded until day 28 of the study.
The following parameters have been considered to determine the clinical condition of patients:
The functional response to the treatments has been evaluated by exertional tests, the 6-minute walking test and the 130-meter walking test.
For the evaluation of clinical condition, more than 60 symptoms or signs were evaluated.
For statistical purposes scores from signs and symptoms (as applicable) were summed to form clinical compound scorings (CCSs) of pathophysiological importance in congestive heart failure.

With `CNC1CCc2c(ccc(OC(=O)C(C)C)c2OC(=O)C(C)C)C1` (centres unmarked) [CHF 1035, 5,6-Diisobutyroyloxy-2-methylaminotetralin] the “functional and clinical condition of patients, compared to placebo” value (5, 10, 15 mg add-on to diuretics or diuretics and ACE inhibitor, day 1 to 28) was “improved” and the “duration of pharmacodynamic effects versus serum levels of the drug” value (patients with congestive heart failure) was “last longer than detectable serum levels”.
